Assay results reported in US8282778B2, “Prevention of bacterial spore formation in a broke system of a board machine” (Kemira Oyj, priority 2006, dated 2012).
Like-named read-outs stand apart in the source and are kept apart here.

Experiments:
[1] = system: Bacillus licheniformis 217 strain; test: Example 1: sporulation of bacilli isolated from a board machine in sterilized dilute broke with spray starch; type: cell-based
Protocol: In this laboratory experiment, the effect of bivalent manganese and bivalent iron as well as a chelating agent (DTPA, diethylenetriaminepentaacetic acid) on the sporulation of bacilli isolated from a board machine was studied under conditions of the broke system. For the experiment, an inoculum free of spores was prepared from the Bacillus licheniformis 217 strain by carrying out three consecutive cultivations in a liquid medium for 24 hours (Tryptone-Yeast Extract Medium, +50° C., agitation at 100 rpm) using a low inoculation ratio (0.1% by volume/volume). Broke free of spores was produced by sterilizing dilute broke of the board machine. A low amount of spray starch used in the board machine was added to the broke to make up for the amount of starch consumed by bacterial activity during the transportation of the broke sample to the laboratory. The broke was divided into aliquots of 25 ml each and filled in tubes, followed by the addition of the test agents at different concentrations. […] The amounts of aerobic bacteria and aerobic spores in each tube were determined after different exposure times. The amount of aerobic bacteria were determined by a filtering method, whereas aerobic spores were determined from pasteurized (20 min, 80° C.) samples using the pour plate method (Plate Count Agar in both cases, 45° C., 3 d).

[2] = system: Bacillus licheniformis 217 strain; test: Example 3: sporulation of bacilli in broke, metals, DTPA and test product C; type: cell-based
Protocol: In this laboratory experiment, the effect of bivalent manganese and bivalent iron as well as a chelating agent (DTPA, diethylenetriaminepentaacetic acid) on the sporulation of bacilli isolated from a board machine was studied under conditions of the broke system. For the experiment, an inoculum free of spores was prepared from the Bacillus licheniformis 217 strain by carrying out three consecutive cultivations in a liquid medium for 24 hours (Tryptone-Yeast Extract Medium, +50° C., agitation at 100 rpm) using a low inoculation ratio (0.1% by volume/volume). Broke free of spores was produced by sterilizing dilute broke of the board machine. A low amount of spray starch used in the board machine was added to the broke to make up for the amount of starch consumed by bacterial activity during the transportation of the broke sample to the laboratory. The broke was divided into aliquots of 25 ml each and filled in tubes, followed by the addition of the test agents at different concentrations. 0.2% stock solutions of manganese (Mn(II)Cl2×4H2O) and iron (Fe(II)SO4×7H2O) in deionized water were sterile filtered using 0.2 μm spray filters. 25 μl of the Bacillus culture free of spores were added to each tube, followed by keeping the tubes at 45° C. (agitation at 100 rpm). The amounts of aerobic bacteria and aerobic spores in each tube were determined after different exposure times. The amount of aerobic bacteria were determined by a filtering method, whereas aerobic spores were determined from pasteurized (20 min, 80° C.) samples using the pour plate method (Plate Count Agar in both cases, 45° C., 3 d).
In this laboratory experiment, the effect of a test product C containing a dispersing agent and DTPA on sporulation of bacilli isolated from a board machine was studied under the conditions in the broke system. […]

[3] = pulping process; cited from earlier work
[4] = system: Bacillus subtilis bacteria; settings: cited from earlier work
aconitase enzyme = aconitase enzyme (Bacillus subtilis, UniProt P09339); settings: concentrations of less than 1 mM; cited from earlier work
Sequence of aconitase enzyme (P09339 whole entry): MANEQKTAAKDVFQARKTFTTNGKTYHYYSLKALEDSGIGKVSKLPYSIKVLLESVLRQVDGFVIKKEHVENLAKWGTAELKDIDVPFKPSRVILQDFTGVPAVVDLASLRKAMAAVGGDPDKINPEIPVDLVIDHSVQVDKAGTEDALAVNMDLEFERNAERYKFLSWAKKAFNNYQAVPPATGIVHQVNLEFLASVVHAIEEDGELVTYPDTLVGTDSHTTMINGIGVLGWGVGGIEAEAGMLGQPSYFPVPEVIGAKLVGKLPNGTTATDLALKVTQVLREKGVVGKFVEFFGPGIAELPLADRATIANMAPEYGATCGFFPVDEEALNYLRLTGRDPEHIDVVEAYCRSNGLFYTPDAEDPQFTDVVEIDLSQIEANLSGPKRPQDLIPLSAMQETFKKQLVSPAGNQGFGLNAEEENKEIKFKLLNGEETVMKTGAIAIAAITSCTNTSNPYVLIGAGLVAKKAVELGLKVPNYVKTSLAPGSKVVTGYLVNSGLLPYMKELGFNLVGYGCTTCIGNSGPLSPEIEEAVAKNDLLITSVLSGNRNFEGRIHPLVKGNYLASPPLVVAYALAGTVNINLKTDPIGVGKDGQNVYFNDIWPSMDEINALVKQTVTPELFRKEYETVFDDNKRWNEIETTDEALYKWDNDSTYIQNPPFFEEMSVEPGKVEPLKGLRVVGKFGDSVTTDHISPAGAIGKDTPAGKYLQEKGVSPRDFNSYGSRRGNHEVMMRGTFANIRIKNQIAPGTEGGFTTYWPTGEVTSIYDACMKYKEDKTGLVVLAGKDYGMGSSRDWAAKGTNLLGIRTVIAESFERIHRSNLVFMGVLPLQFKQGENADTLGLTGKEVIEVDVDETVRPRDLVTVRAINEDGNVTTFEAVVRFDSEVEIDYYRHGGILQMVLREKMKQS

[5] = system: Bacillus subtilis bacteria; settings: cited from earlier work; remark: listed apart in the source

Compound: O=C(O)CN(CCN(CC(=O)O)CC(=O)O)CCN(CC(=O)O)CC(=O)O [DTPA, diethylenetriaminepentaacetic acid]
- reduction of sporulation ([1]; 12.5 ppm (as active agent)): 79%
- inhibition of sporulation ([1]; 17.5 ppm): total inhibition
- toxicity to bacilli (amount of aerobic bacteria, FIG. 5) [2]: neither DTPA nor the test product C was toxic
- reduction of sporulation ([2]; 12 ppm (as active agent)): 99.4%
- sporulation frequency ([2]; 12 ppm (as active agent)): 0.11%

Compound: O=P(O)(O)CN(CCN(CP(=O)(O)O)CP(=O)(O)O)CCN(CP(=O)(O)O)CP(=O)(O)O [DTPMP, diethylenetriamine-pentakis methylenephosphonic acid]
- chelating performance for manganese [3]: over 95%

Compound: O=C(O)c1ccccn1 [alpha picolinic acid]
- sporulation ([4]; concentration of 0.4 mM): reduced sporulation
- growth ([4]; concentrations of less than 1 mM (<123 ppm)): not inhibited

Compound: c1ccc(-c2ccccn2)nc1 [dipyridyl]
- aconitase enzyme inhibition (aconitase enzyme): inhibited

Compound: [Mn+2] [manganese]
- amount of sporulating cells of the wild type strain ([5]; 0.006 ppm manganese addition): about 2.6%
- amount of sporulating cells of the wild type strain ([5]; 0.8 ppm of manganese added): 39%
- amount of sporulating cells ([5]; manganese addition of 0.1 ppm or more, growth medium rich in nutrients): increased

Compound: c1cnc2c(c1)ccc1cccnc12 [o-phenanthroline]
- aconitase enzyme inhibition (aconitase enzyme): inhibited

Compound: O=C(O)c1ccc2ccccc2n1 [quinaldic acid]
- aconitase enzyme inhibition (aconitase enzyme): inhibited
